In US4803221A, “Anthracene derivatives” (priority 1987, dated 1989):
Counter-ions that a name gives are not always drawn.

How the values were obtained:
[1] = system: lymphocytic leukemia P388/0; test: Lymphocytic Leukemia P388/0 Test; type: in vivo, mouse (CD2-F1); set-up: LD20: unit: mg/kg; settings: ip days 1, 5, 9; for LD20: doses on a mg/kg basis; for T/C × 100% (Excluding 30 Day Survivors): median survival time treated/control, at the optimal dose of the compound (Table I), active if ≥120%
Source text: (§1) Methods for evaluating the antitumor activity of these compounds are essentially those used in the Tumor Panel by the Developmental Therapeutics Program, Division of Cancer Treatment, National Cancer Institute, A. Goldin, et al., Methods in Cancer Research, Vol. XVI, p.165, Academic Press (1979). Some modifications, in dose level and schedule have been made to increase the testing efficiency.
(§2) CD2-F1 mice, of the same sex, weighing 20±3 g are used for this test. Control and test animals are injected intraperitoneally with a suspension of ~10^6 viable P388/0 tumor cells on day 0. In each test, several dose levels which bracket the LD20 of the compound are evaluated; each dose level group contains six animals. The test compounds are prepared either in physiologic saline containing 0.05% Tween 80 or distilled water containing 5% dextrose and are administered intraperitoneally on days 1, 5, and 9 relative to tumor implant. Doses are on a mg/kg basis according to individual animals' body weights. The day of death for each animal is recorded, the median identified for each group and the ratios of median survival time for treated (T)/control (C) Groups are calculated. The criterion for activity is T/C×100≥120%.

[2] = system: Herpes simplex 1/vero; test: Herpes simplex 1/vero plaque inhibition screen; type: cell-based; settings: for Zone of Inhibition: plaque inhibition screen
Source text: The column headings labeled Score, Toxicity, and Zone of Inhibition refer to the plaque inhibition screen while the IC50 heading to the plaque reduction screen.

[3] = Lymphocytic Leukemia P388/0 Test; type: in vivo, mouse (CD2-F1); set-up: LD20: unit: mg/kg; settings: mouse, in vivo; ip days 1, 5, 9; doses on a mg/kg basis; read-out: highest nontoxic dose where the LD20 was not determined (values in parentheses in LD20 column)
Source text: as §1, §2

## CC(CO)(CO)NCc1c2ccccc2c(N2CCOCC2)c2ccccc12 [Example 28B, 2-Methyl-2-((((10-N-morpholino)-9-anthracenyl)methyl)amino)-1,3-propanediol methanesulfonate.3/4H2 O]
[1]
  LD20: 225
  T/C × 100% (Excluding 30 Day Survivors): +235%

## COCC(C)(CO)NCc1c2ccccc2cc2ccccc12.Cl (stereo not shown) [Example 33D, 2-((9-Anthracenylmethyl)amino)-3-methoxy-2-methyl-1-propanol hydrochloride]
[2]
  Zone of Inhibition: 35

## Cl.OCC(CO)(CO)NCc1c2ccccc2c(Cl)c2ccccc12 [Example 21, 2-(((10-Chloro-9-anthracenyl)methyl)amino)-2-hydroxymethyl-1,3-propanediol hydrochloride]
[1]
  LD20: 440
  T/C × 100% (Excluding 30 Day Survivors): +140%

## CC(CO)(CO)NCc1c2ccccc2c(CCCl)c2ccccc12.Cl [Example 4B, 2-(((10-(2-chloroethyl)-9-anthracenyl)methyl)amino)-2-methyl-1,3-propanediol hydrochloride]
[1]
  T/C × 100% (Excluding 30 Day Survivors): +225%
[3]
  MTD: 300 mg/kg

## CC(CO)(CO)NCc1c2ccccc2cc2cc(Cl)ccc12 [Example 18, 2-(((3-Chloro-9-anthracenyl)methyl)amino-2-methyl-1,3-propanediol hydrochloride]
[1]
  T/C × 100% (Excluding 30 Day Survivors): +181%
[3]
  MTD: 675 mg/kg

## Cc1cc2c(Cl)c3ccccc3c(CNC(C)(CO)CO)c2cc1C.Cl [Example 40B, 2-(((10-Chloro-2,3-dimethyl-9-anthracenyl)methyl)amino)-2-methyl-1,3-propanediol hydrochloride]
[1]
  T/C × 100% (Excluding 30 Day Survivors): +205%
[3]
  MTD: 300 mg/kg

## CC(CO)(CO)NCc1c2ccccc2c(SCCO)c2ccccc12.Cl [Example 20B, 2-(((10-(2-hydroxyethylthio)-9-anthracenyl)methyl)amino)-2-methyl-1,3-propanediol hydrochloride]
[1]
  LD20: 440
  T/C × 100% (Excluding 30 Day Survivors): +145%

## CCCCc1c2ccccc2c(CNC(C)(CO)CO)c2ccccc12.Cl [Example 45B, 2-(((10-Butyl-9-anthracenyl)methyl)amino)-2-methyl-1,3-propanediol hydrochloride]
[1]
  LD20: 212
  T/C × 100% (Excluding 30 Day Survivors): +170%

## 2-(((2-Ethyl-9-anthracenyl)methyl)amino)-2-methyl-1,3-propanediol and 2-(((3-ethyl-9-anthracenyl)methyl)amino)-2-methyl-1,3-propanediol hydrochloride.1/4H2 O [Example 31C]
[2]
  Toxicity: Y

## CC(C)C(CO)(CO)NCc1c2ccccc2cc2ccccc12 [Example 35C, 2-((9-Anthracenylmethyl)amino)-2-isopropyl-1,3-propanediol methanesulfonate]
[1]
  LD20: 450
  T/C × 100% (Excluding 30 Day Survivors): +150%

## CC(CO)(CO)NCc1c2ccccc2c(Cl)c2ccc(C(C)(C)C)cc12.Cl [Example 41C, 2-(((2-tert-butyl-10-chloro-9-anthracenyl)methyl)amino)-2-methyl-1,3-propanediol hydrochloride.1/4H2 O]
[1]
  T/C × 100% (Excluding 30 Day Survivors): +125%

## CC(CO)(CO)NCc1cccc2cc3ccccc3cc12 [Example 15E, 2-((1-Anthracenylmethyl)amino)-2-methyl-1,3-propanediol hydrochloride]
[1]
  LD20: 7
  T/C × 100% (Excluding 30 Day Survivors): +204%

## C[C@H](O)[C@@](C)(CO)NCc1c2ccccc2cc2ccccc12 (relative stereo) [Example 30G, (+-)(2R*,3S*)-2-((9-Anthracenylmethyl)amino)-2-methyl-1,3-butanediol hydrochloride 1/4H2 O]
[1]
  LD20: 180
  T/C × 100% (Excluding 30 Day Survivors): +136%

## CCOc1c2ccccc2c(CNC(C)(CO)CO)c2ccccc12.Cl [Example 24B, 2-(((10-Ethoxy-9-anthracenyl)methyl)amino)-2-methyl-1,3-propanediol hydrochloride]
[1]
  LD20: 96
  T/C × 100% (Excluding 30 Day Survivors): +218%

## CCOCC(CO)(CO)NCc1c2ccccc2cc2ccccc12.Cl [Example 32C, 2-((9-Anthracenylmethyl)amino)-2-ethoxymethyl-1,3-propanediol hydrochloride]
[2]
  Zone of Inhibition: 23.2
[1]
  LD20: 625
  T/C × 100% (Excluding 30 Day Survivors): +130%

## CC(CO)(CO)NCc1c2ccccc2c(C#N)c2ccccc12.Cl [Example 14B, 10-((1,1-Bis(hydroxymethyl)ethylamino)methyl)-9-anthracenecarbonitrile hydrochloride]
[1]
  LD20: 387
  T/C × 100% (Excluding 30 Day Survivors): +190%

## CC(CO)(CO)NCc1c2ccccc2c(-n2ccnc2)c2ccccc12 [Example 29B, 2-(((10-(1H-Imidazol-1-yl)-9-anthracenyl)methyl)amino)-2-methyl-1,3-propanediol hydrochloride 11/10 H2 O]
[2]
  Zone of Inhibition: 32
[1]
  LD20: 100
  T/C × 100% (Excluding 30 Day Survivors): +235%

## COCCOc1c2ccccc2c(CNC(C)(CO)CO)c2ccccc12 [Example 27B, 2-(((10-(2-Methoxyethoxy)-9-anthracenyl)methyl)amino)-2-methyl-1,3-propanediol hydrochloride 1/4H2 O]
[1]
  LD20: 180
  T/C × 100% (Excluding 30 Day Survivors): +260%

## C[S+]([O-])c1c2ccccc2c(CNC(C)(CO)CO)c2ccccc12.Cl (stereo not shown) [Example 12B, 2-Methyl-2-(((10-methylsulfinyl-9-anthracenyl)methyl)amino)-1,3-propanediol hydrochloride]
[1]
  LD20: 55
  T/C × 100% (Excluding 30 Day Survivors): +220%

## CCSc1c2ccccc2c(CNC(C)(CO)CO)c2ccccc12.Cl [Example 19B, 2-(((10-ethylthio-9-anthracenyl)methyl)amino)-2-methyl-1,3-propanediol hydrochloride]
[1]
  LD20: 625
  T/C × 100% (Excluding 30 Day Survivors): +145%

## CC(CO)(CO)NCc1c2ccccc2cc2ccc(Cl)cc12.Cl [Example 17C, 2-(((2-Chloro-9-anthracenyl)methyl)amino)-2-methyl-1,3-propanediol hydrochloride]
[1]
  LD20: 150
  T/C × 100% (Excluding 30 Day Survivors): +170%

## CC(CO)(CO)NCc1c2ccccc2c(Cl)c2c(Cl)cccc12.Cl [Example 5C, 2-(((4,10-dichloro-9-anthracenyl)methyl)amino)-2-methyl-1,3-propanediol hydrochloride]
[1]
  T/C × 100% (Excluding 30 Day Survivors): +204%
[3]
  MTD: 300 mg/kg

## CC(CO)(CO)NCc1cccc2c(Br)c3ccccc3cc12.Cl [Example 16C, 2-(((10-Bromo-1-anthracenyl)methyl)amino)-2-methyl-1,3-propanediol hydrochloride]
[1]
  T/C × 100% (Excluding 30 Day Survivors): +225%
[3]
  MTD: 300 mg/kg

## CC(CO)(CO)NCc1c2ccccc2c(Cl)c2cc(Cl)ccc12.Cl [Example 23, 2-(((3,10-dichloro-9-anthracenyl)methyl)amino)-2-methyl-1,3-propanediol hydrochloride]
[1]
  T/C × 100% (Excluding 30 Day Survivors): +210%
[3]
  MTD: 300 mg/kg

## CC(CO)(CO)NCc1c2ccccc2c(Br)c2ccccc12.Cl [Example 8B, 2-(((10-Bromo-9-anthracenyl)methyl)amino)-2-methyl-1,3-propanediol hydrochloride]
[1]
  T/C × 100% (Excluding 30 Day Survivors): +200%
[3]
  MTD: 450 mg/kg

## CC(CO)(CO)NCc1c2ccccc2c(S(C)(=O)=O)c2ccccc12.Cl [Example 26B, 2-Methyl-2-(((10-methylsulfonyl-9-anthracenyl)methyl)amino)-1,3-propanediol hydrochloride]
[1]
  T/C × 100% (Excluding 30 Day Survivors): +228%
[3]
  MTD: 300 mg/kg

## CC(CO)(CO)NCc1c2ccccc2c(CO)c2ccccc12 [Example 6, 2-(((10-Hydroxymethyl-9-anthracenyl)methyl)amino)-2-methyl-1,3-propanediol hydrochloride 1/4H2 O]
[1]
  LD20: 180
  T/C × 100% (Excluding 30 Day Survivors): +170%

## CC(CO)(CCO)NCc1c2ccccc2cc2ccccc12.CS(=O)(=O)O (stereo not shown) [Example 36G, 2-((9-anthracenylmethyl)amino)-2-methyl-1,4-butanediol methanesulfonate]
[1]
  LD20: 120
  T/C × 100% (Excluding 30 Day Survivors): +125%

## CC(CO)(CO)NCc1cccc2c(Cl)c3ccccc3cc12 [Example 37E, 2-(((10-Chloro-1-anthracenyl)methyl)amino)-2-methyl-1,3-propanediol methanesulfonate.9/20 H2 O]
[1]
  LD20: 140
  T/C × 100% (Excluding 30 Day Survivors): +145%

## CCCCOc1c2ccccc2c(CNC(C)(CO)CO)c2ccccc12.Cl [Example 44F, 2-(((10-Butoxy-9-anthracenyl)methyl)amino)-2-methyl-1,3-propanediol hydrochloride]
[1]
  LD20: 120
  T/C × 100% (Excluding 30 Day Survivors): +120%

## CC(CO)(CO)NCc1c2ccccc2c(Cl)c2ccc(Cl)cc12.Cl [Example 22C, 2-(((2,10-dichloro-9-anthracenyl)methyl)amino)-2-methyl-1,3-propanediol hydrochloride]
[1]
  T/C × 100% (Excluding 30 Day Survivors): +200%
[3]
  MTD: 400 mg/kg
